According to patent US12648997B2, “Treatment of infections” (priority 2018, dated 2026):

Experiments:
[1] = Stability of daptomycin in transient daptomycin-linker hydrogel conjugates versus free daptomycin; type: physicochemical; details: pH 7.4, 37° C, at day seven; peak area ratio at 215 nm
Protocol: The relative stability of the covalently bound daptomycin in the transient daptomycin-linker hydrogel conjugates towards hydrolytic and other degradation pathways in comparison to free daptomycin was investigated. For that purpose, free daptomycin, transient daptomycin-linker HA-conjugate 5 and transient daptomycin-linker PEG-conjugate 9b were incubated at pH 7.4 and 37° C. The supernatants of the carrier samples were exchanged five times within a week and the daptomycin purity in these samples was analyzed by UPLC. In parallel, analytical samples of the free daptomycin control solution were also analyzed by UPLC at the same incubation times. The purity of daptomycin in the samples was calculated as the ratio of the peak area of the intact daptomycin peak at 215 nm relative to the area sum of all daptomycin-related peaks identified at 215 nm.

[2] = tested on: Methicillin-sensitive Staphylococcus aureus (MSSA) MN8 strain biofilms; assay: In vitro biofilm eradication study (Calgary Biofilm Device); type: cell-based; details: TSB with 12 mg/mL BSA and 50 μg/mL calcium, 37° C, OD600
Protocol: This study was performed to investigate the daptomycin concentration required to fully eradicate biofilms when constantly exposed to daptomycin for one or three days. […] Biofilms were grown in tryptic soy broth (TSB) using a Methicillin-sensitive Staphylococcus aureus (MSSA) MN8 strain. Aliquots of a diluted culture of this bacterial strain in TSB, obtained from an inoculum of the respective strain on trypticase soy agar plates (TSA), were transferred to all but the negative control wells of flat-bottom 96-well microtiter plates. The bacterial biofilms were formed by immersing lids with pegs into the 96-well microtiter plates, followed by incubation for 24, 48 and 72 hours at 37° C. The differently aged biofilms were subsequently transferred into new microtiter plates using TSB media with addition of 12 mg/mL bovine serum albumin (BSA) and 50 μg/mL calcium as CaCl2. Daptomycin was added to the media as required to obtain concentrations of 2-1458 μg/mL. The plates were incubated for one or three days at 37° C. The biofilms were detached from the pegs by centrifugation, generating bacterial suspensions in the wells of the microtiter plates. The optical densities of these suspensions were measured (OD600) to determine the biofilm eradication concentrations. All measurements were performed in triplicates.

purity of the free daptomycin in the solution control sample [1]: 72%
SMILES: CCCCCCCCCC(=O)N[C@@H](Cc1c[nH]c2ccccc12)C(=O)N[C@H](CC(N)=O)C(=O)N[C@@H](CC(=O)O)C(=O)N[C@@H]1C(=O)NCC(=O)N[C@@H](CCCN)C(=O)N[C@@H](CC(=O)O)C(=O)N[C@H](C)C(=O)N[C@@H](CC(=O)O)C(=O)NCC(=O)N[C@H](CO)C(=O)N[C@@H]([C@H](C)CC(=O)O)C(=O)N[C@@H](CC(=O)c2ccccc2N)C(=O)O[C@@H]1C [daptomycin]
daptomycin concentration needed to fully eradicate biofilms ([2]; 24 hours exposure, biofilms of all ages (24, 48, 72 h)): 486 µg/mL
daptomycin concentration needed to fully eradicate biofilms ([2]; three days exposure): 162 µg/mL
